Legend:
[1] = tested on: rats receiving Paraquat into Substantia Nigra; type: in vivo, rat
Source text: The Paraquat/rat/PS experimental model was therefore selected as the most indicative for checking the efficacy of chemical compounds according to the present invention; of these, two anti-oxidants designated MP1002 and MP1001 were used in the tests:
Male Sprague Dawley rats (210-220 g weight) were kept on a standard laboratory diet supplemented with “Nossan Pellets” (both the animals and the pellets are available from Nossan Company, Milan, Italy) and were housed for three weeks (relative humidity 50%±10%, temperature 22° C.±1 and in a light/darkness cycle of 12 hours/12 hours, with first light at 7.30 a.m.) prior to the tests; food and water were available ad libitum.
Prior to treatment, the rats were anaesthetized by intraperitoneal injection of 380 mg/kg weight of chloral hydrate; a stainless steel guide cannula (size 25) was implanted unilaterally in the Substantia Nigra with stereotaxic guiding and was secured to the cranium with dental acrylic material.
The animals (20 per test group) were allowed a recovery period of seven days prior to treatment; during this period no change in motor activity or posture was observed. Microinfusions were performed by means of a 10 μl Hamilton syringe connected to an injection cannula by means of a Teflon tube. The compounds or the vehicle (0.8% NaCl) were injected at a total volume of 1 μl/minute.
Microinfusion of 50 μg of Paraquat into the Substantia Nigra (n=20 rats) led to an increase in motor activity with the animals performing jumps and moving in circles in a contralateral direction relative to the injection position, about 24 minutes later; all of the animals were dead 24±2.5 hours after infusion. A further twenty animals were infused with Paraquat and twenty with Paraquat plus vehicle; about ten of the animals for each group survived 20 hours after treatment and were used to determine the development of lipid peroxidation in the Substantia Nigra.

[2] = tested on: lipid peroxidation in the Substantia Nigra; type: in vivo; conditions: Substantia Nigra, 20 hours after Paraquat alone, 50 μg microinfusion
Protocol: Microinfusion of 50 μg of Paraquat into the Substantia Nigra (n=20 rats) led to an increase in motor activity with the animals performing jumps and moving in circles in a contralateral direction relative to the injection position, about 24 minutes later; all of the animals were dead 24±2.5 hours after infusion. […]
[…]. Enzymol. 52, 302-310, 1978.

[3] = 50 μg Paraquat into the Substantia Nigra, n=20 rats
[4] = Paraquat alone, 50 μg microinfusion into Substantia Nigra

## C[n+]1ccc(-c2cc[n+](C)cc2)cc1 [Paraquat, reference compound]
[1]; [3]
  time after infusion at which all of the animals were dead: 24 ± 2.5 h
  time to increase in motor activity (jumps, contralateral circling) after microinfusion: about 24 minutes
[1]; [4]
  Duration (seizures): 270 ± 15 min
  Latency (seizures): 25 ± 4 min
  Mortality: 100 (20/20) %
[2]
  Lipid Peroxidation: 14.6 ± 1.34 nmol MDA × h^−1 × mg prot^−1
